Data set [1] relates to recombinant human cytomegalovirus (HCMV). Kind of data set: microbe, parasite or virus in culture. It is filed as cell-based. The following applies: Human betaherpesvirus 5, HFF. From the text: For the assessment of activity against human CMV, a method was used which is similar to that described in Kohler, et al. (1994) J. Virol. 68:6589-6597. Briefly, a recombinant human cytomegalovirus (HCMV) was made containing a marker gene (luciferase) under the control of the promoter for the late 28 kDa viral structural phosphoprotein pp28. Human foreskin fibroblast (HFF) cells were infected with the recombinant HCMV virus (moi (multiplicity of infection) 5), placed into 96-well plates, and cultured under standard cell-culture conditions. […] The level of luciferase expression was measured 24 h after treatment with the test compounds. […] As an additional control, the cytotoxicity of test compounds on untreated HFF cells was also evaluated in cultured cell growth experiments.

`Cc1nc(NC2Cc3ccccc3C2)nc(-n2ccnc2C)c1[N+](=O)[O-].Cl` had a melting point of 184 to 185 °C.

`CC[C@H]1CCCCC1Nc1nc(C)c([N+](=O)[O-])c(-n2ccnc2)n1` (some centres unmarked) displayed a melting point of 123 to 124 °C.

For the compound `CCC(Nc1nc(C)c([N+](=O)[O-])c(-n2ccnc2)n1)c1ccccc1` (centres unmarked) [2-(1-phenyl-1-propylamino)-4-(imidazol-1-yl)-6-methyl-5-nitropyrimidine], the IC50 in data set [1] was over 500 nM. For the compound `Cc1nc(NC2Cc3ccccc3C2)nc(-n2ccnc2C)c1[N+](=O)[O-]` [2-(2-indanamino)-4-(2-methylimidazoyl)-6-methyl-5-nitropyrimidine], in data set [1], the IC50 was over 500 nM. For `Cc1nc(NC2Cc3ccccc3C2)nc(-n2ccnc2)c1[N+](=O)[O-]` [2-(2-indanamino)-4-imidazolyl-6-methyl-5-nitropyrimidine], the IC50 in data set [1] was over 500 nM. Regarding `CCc1nccn1-c1nc(NC2CCc3c(F)cc(F)cc32)nc(C)c1[N+](=O)[O-]` (centres unmarked) [2-(4,6-difluoro-1-indanamino)-4-(2-ethylimidazolyl)-6-methyl-5-nitropyrimidine], the half-inhibitory concentration (IC50) in data set [1] lay within 100 to 500 nM.

With `Cc1nc(NC2CCc3c(F)cc(F)cc32)nc(-n2ccnc2C)c1[N+](=O)[O-]` (centres unmarked) [2-(4,6-difluoro-1-indanamino)-4-(2-methylimidazolyl)-6-methyl-5-nitropyrimidine], in data set [1], the IC50 lay in the range of 100 to 500 nM. In the case of `Cc1nc(NC2CCc3c(F)cc(F)cc32)nc(-n2ccnc2)c1[N+](=O)[O-]` (centres unmarked) [2-(4,6-difluoro-1-indanamino)-4-imidazolyl-6-methyl-5-nitropyrimidine], in data set [1], the 50% inhibitory concentration (IC50) was 100 to 500 nM. In the case of `Cc1nc(NCc2ccc(C(F)(F)F)cc2)nc(-n2ccnc2C)c1[N+](=O)[O-]` [2-(4-trifluoromethylbenzylamino)-4-(2-methylimidazol-1-yl)-6-methyl-5-nitropyrimidine], the IC50 in data set [1] fell in the range of 100 to 500 nM.

Regarding `CCCCN(Cc1ccccc1)c1nc(C)c([N+](=O)[O-])c(-n2ccnc2C)n1` [Compound m], the IC50 in data set [1] was 2000 nM. As to `Cc1nc(N(Cc2ccccc2)Cc2ccccc2)nc(-n2ccnc2C)c1[N+](=O)[O-]` [Compound o], in data set [1], the IC50 was determined as 2000 nM. Take `Cc1nc(N2CCC(C)CC2)nc(-n2ccnc2C)c1[N+](=O)[O-]` [Compound p]: the IC50 in data set [1] turned out to be 300 nM.

Take `CCCCN(CC1CC1)c1nc(C)c([N+](=O)[O-])c(-n2ccnc2C)n1` [Compound q]: the IC50 in data set [1] was determined as 3000 nM. With `CCc1nc(N(C)c2ccccc2)nc(-n2ccnc2C)c1[N+](=O)[O-]` [c], in data set [1], the concentration for half-maximal inhibition (IC50) stood at 100 nM.

For the compound `Cc1nc(-n2ccnc2C)nc(N(C)Cc2ccccc2)c1[N+](=O)[O-]` [f], in data set [1], the IC50 came to 6000 nM. As to `Cc1nc(N(C)c2ccc(Cl)cc2)nc(-n2ccnc2C)c1[N+](=O)[O-]` [g], in data set [1], the half-maximal inhibitory concentration (IC50) was determined as 800 nM.

`Cc1nccn1-c1nc(N(C)c2ccccc2)nc(C(C)C)c1[N+](=O)[O-]` [h]: the IC50 in data set [1] worked out at 300 nM. The same measure, in the same setting: as for `CCN(CC)c1nc(C)c([N+](=O)[O-])c(-n2ccnc2C)n1` [k], the figure is 1000 nM. Take `Cc1cn(-c2nc(N(C)c3ccccc3)nc(C)c2[N+](=O)[O-])cn1` [t]: the IC50 in data set [1] was 10000 nM. As to `CCCOc1nc(C)c([N+](=O)[O-])c(-n2ccnc2C)n1` [x, 2-(propyloxy)-4-(2-methylimidazol-1yl)-6-methyl-5-nitropyrimidine], the IC50 in data set [1] was over 500 nM.

Usually melting point stands for the temperature of the solid-liquid transition. A word on the IC50: it is the midpoint of a concentration-inhibition curve.
